Source: patent publication US20090030055A1, “PKC activation as a means for enhancing s[sequence] secretion and improving cognition using bryostatin type compounds” (priority 2002, published 2009)
Entries after “also recorded” stand apart in the source; their conditions may differ.

Columns and labels:
PKC-α = target: T1, PKC-α (Homo sapiens, UniProt P17252); assay: Immunoblot assay for PKC translocation, α isoenzyme; type: cell-based
T1 construct: endogenous in cells; host or cells: human fibroblasts (AD patient and control lines)
Protocol: Immunoblot experiments were conducted using well-established procedures (Dunbar, 1994). Cells were grown to confluency (˜90%) in 6 cm Petri dishes. […] Fibroblasts were washed twice with ice-cold PBS, scraped in PBS, and collected by low-speed centrifugation. The pellets were re-suspended in the following homogenization buffer: 20 mM Tris-HCl, pH 7.5, 2 mM EDTA, 2 mM EGTA, 5 mM DTT, 0.32 M sucrose, and protease inhibitor cocktail (Sigma). […] The pellets were homogenized in the same buffer containing 1.0% Triton X-100, incubated in ice for 45 minutes, and centrifuged at ˜12,000 g for 20 minutes. The supernatant from this batch was used as the membranous fraction. After protein determination, 20 μg of protein were diluted in 2× electrophoresis sample buffer (Novex), boiled for 5 minutes, run on 10% acrylamide gel, and transferred electrophoretically to a PVDF membrane. The membrane was saturated with 5% milk blocker by incubating it at room temperature for an hour. The primary antibody for PKC isoform (Transduction Laboratories) was diluted (1:1000) in blocking solution and incubated with the membrane overnight at 4° C. […] The band intensities were quantified by densitometry using a BioRad GS-800 calibrated scanning densitometer and Multianalyst software (BioRad).

Wistar albino rats = assay: Morris Water Maze; type: in vivo; conditions: for learning, escape latency from trial to trial: i.c.v. 1 μl/site of 2 μM, vs vehicle control
Description: (See, for example, Hollister, L. E., 1990, Pharmacopsychiat., 23, (Suppl II) 33-36). The available animal models of memory loss and impaired learning involve measuring the ability of animals to remember a discrete event. These tests include the Morris Water Maze and the passive avoidance procedure. In the Morris Water Maze, animals are allowed to swim in a tank divided into four quadrants, only one of which has a safety platform beneath the water. The platform is removed and the animals are tested for how long they search the correct quadrant verse the incorrect quadrants. In the passive avoidance procedure the animal remembers the distinctive environment in which a mild electric shock is delivered and avoids it on a second occasion. A variant of the passive avoidance procedure makes use of a rodent's preference for dark enclosed environments over light open ones. Further discussion can be found in Crawley, J. N., 1981, Pharmacol. Biochem. Behav., 15, 695-699; Costall, B. et al., 1987, Neuropharmacol., 26, 195-200; Costall, B. et at, 1989, Pharmacol. Biochem. Behav., 32, 777-785; Barnes, J. M. et al., 1989, Br. J. Pharmacol., 98 (Suppl) 693P; Barnes, J. M. et al., 1990, Pharmacol. Biochem. Behav., 35, 955-962.
Wistar albino rats (n=20) weighing between 220-250 g were housed for one week with free access to food and water. Stainless steel cannulas were placed bilaterally in each rat, following previously described procedures (49). […] Subsequently, animals were assigned randomly to experimental and control groups. At least 24 h prior to treatment and training, all animals were pre-exposed to the MWM experimental situation by placing them in the water and allowed to swim for 120 s. The training followed standard procedures (49) and consisted of two trials per day for 4 consecutive days. […] The control group received the same volume of vehicle alone, on identical schedule. On the fifth day, the platform was removed and the retention test was conducted. Animals' movements and escape latencies were recorded with an automatic tracking system. […] Acquisition of memory was measured as time spent in the relevant quadrant (5th day). […] Bryostatin-1 is capable of being used at concentrations to improve cognition that are 300 to 300,000 times lower than the concentration used to treat tumors.

[1] = humans; cited from earlier work
[2] = test system: sAPPα secretion, control cell lines AG07141 and AG06241; assay: sAPPα secretion immunoblot, control fibroblasts; type: cell-based, human; conditions: two control cell lines pooled, 0.1 nM, compared to DMSO alone
Protocol: (§1) Cultured skin fibroblasts were obtained from the Coriell Cell Repositories and grown using the general guidelines established for their culture with slight modifications (Cristofalo & Carpentier, 1988; Hirashima et al., 1996). The culture medium in which cells were grown was Dulbecco's modified Eagle's medium (GIBCO) supplemented with 10% fetal calf serum (Biofluids, Inc.). Fibroblasts from control cell lines (AC), cases AG07141 and AG06241, and a familial AD (FAD) case (AG06848) were utilized.
Cells grown to confluence in 6 cm Petri dishes for 5-7 days. On the day of the experiment, medium was replaced with DMEM without serum and left undisturbed for 2 h. Upon completion of the 2 hour serum deprivation; treatment was achieved by direct application to the medium of Bryo, BL and DMSO at the appropriate concentrations. (0.1 and 0.01 nM for bryostatin; 0.1 nM, 0.1 μM, and 1 μM BL). DMSO was less than 1% in all cases. […]
The concentration of secreted APP was measured using conventional immunoblotting techniques, with minor modifications the protocol. […] The signal was then detected using enhanced chemiluminescence followed by exposure of Hyperfilm ECL (Amersham). The band intensities were quantified by densitometry using a BioRad GS-800 calibrated scanning densitometer and Multianalyst software (BioRad).

[3] = test system: sAPPα secretion, AD cell line AG06848; assay: sAPPα secretion immunoblot, AD fibroblasts; type: cell-based, human; conditions: for secretion of sAPPα: AD cell line AG06848, three hours of treatment, relative to DMSO
Protocol: as §1
Cells grown to confluence in 6 cm Petri dishes for 5-7 days. On the day of the experiment, medium was replaced with DMEM without serum and left undisturbed for 2 h. Upon completion of the 2 hour serum deprivation; treatment was achieved by direct application to the medium of Bryo, BL and DMSO at the appropriate concentrations. (0.1 and 0.01 nM for bryostatin; 0.1 nM, 0.1 μM, and 1 μM BL). DMSO was less than 1% in all cases. In most cases, medium was collected and processed after 3 hours of treatment for sAPP secretion. Other time points were also used to establish a time course of secretion.
sAPP—Determinations/Measurements of sAPPα
The concentration of secreted APP was measured using conventional immunoblotting techniques, with minor modifications the protocol. Precipitated protein extracts from each dish/treatment were loaded to freshly prepared 10% acrylamide Tris-HCl minigels and separated by SDPAGE. The volume of sample loaded was corrected for total cell protein per dish. Proteins were then electrophoretically transferred to PVDF membranes. Membranes were saturated with 5% non-fat dry milk to block non-specific binding. Blocked membranes were incubated overnight at 4° C. with the commercially available antibody 6E10 (1:500), which recognizes sAPP-alpha in the conditioned medium (SENETEK). After washing, the membranes were incubated at room temperature with horseradish peroxidase conjugated anti-mouse IgG secondary antibody (Jackson's Laboratories). The signal was then detected using enhanced chemiluminescence followed by exposure of Hyperfilm ECL (Amersham). The band intensities were quantified by densitometry using a BioRad GS-800 calibrated scanning densitometer and Multianalyst software (BioRad).

[4] = test system: double transgenic mice carrying the V7171 mutation and a Presenilin-1 (PS1) mutation; assay: Double transgenic mice (V7171 and Presenilin-1 mutation) treated with Bryostatin-1; type: in vivo; conditions: 40 μg/k.g. i.p. three times a week
Protocol: A second transgenic study using similar procedures/testing and protocol was performed using double transgenic mice carrying the V7171 mutation and a Presenilin-1 (PS1) mutation, which causes accelerated amyloid formation, with the following major differences. Approximately 40 mice including both treated and controls were utilized. Treatment began at approximately 3 weeks of age and consisted of treatments with 40 μg/k.g. i.p. three times a week using Bryostatin-1. Controls were given vehicle alone. The treatment continued for approximately seven months before the morbidity rate of the non-treated animals necessitated termination of the experiment (see FIG. 10).

PKC [5] = assay: PKC affinity of bryostatin 1 and bryologs; type: binding; conditions: times more potent than bryostatin-1
Description: Analogs of bryostatin, commonly referred to as bryologs, are one particular class of PKC activators that are suitable for use in the methods of the present invention. […] Structurally, they are all similar. While bryostatin-1 has two pyran rings and one 6-membered cyclic acetal, in most bryologs one of the pyrans of bryostatin-1 is replaced with a second 6-membered acetal ring. This modification […] the stability of bryologs, relative to bryostatin-1, for example, in both strong acid or base, but has little significance at physiological pH. Bryologs also have a lower molecular weight (ranging from about 600 to 755), as compared to bryostatin-1 (988), a property which facilitates transport across the blood-brain barrier.

PKC [6] = conditions: cited from earlier work
[7] = approximately seven months, vs vehicle

CCC/C=C/C=C/C(=O)O[C@H]1/C(=C/C(=O)OC)C[C@H]2C[C@H]([C@@H](C)O)OC(=O)C[C@H](O)C[C@@H]3C[C@H](OC(C)=O)C(C)(C)[C@](O)(C[C@@H]4C/C(=C/C(=O)OC)C[C@H](/C=C/C(C)(C)[C@]1(O)O2)O4)O3 [Bryostatin 1]
time of maximal PKC translocation (measure of activation) (PKC-α): 30 min
time to improved cognition over control rats (Wistar albino rats; i.c.v.): ≤ 2 days
learning, escape latency from trial to trial (Wistar albino rats; listed as bryostatin): significantly faster
learning, escape latency from trial to trial (Wistar albino rats; listed as bryostatin 1): significantly lower
memory or retention, time spent in the relevant quadrant (Wistar albino rats; i.c.v., 5th day, platform removed, vs controls): significantly enhanced
main adverse reaction [1]: myalgia
maximum dose, limited by myalgia [1]: 40 mg/m2
secretion of sAPPα ([2]; listed as Bryostatin): effective in enhancing secretion
secretion of sAPPα ([2]; listed as bryostatin): enhanced the secretion of sAPPα
sAPPα secretion, time-course ([3]; 0.01 nM compared with 0.1 nM, 2 and 3 h of incubation): undistinguishable from the higher
sAPPα secretion, time-course ([3]; 0.01 nM, only after 60 min of incubation): robust enhancement
sAPPα secretion, time-course ([3]; 0.1 nM, 2 and 3 h compared with 60 min): did not substantially differ from 60 min incubation
sAPPα secretion, time-course ([3]; 0.1 nM, 30 and 60 min): Progressive and proportional increases
sAPPα secretion, time-course ([3]; 0.1 nM, 15 min incubation): marked increase
secretion of sAPPα ([3]; 0.1 nM, listed as Bryostatin): dramatically enhanced
secretion of sAPPα ([3]; 0.1 nM, listed as bryostatin): dramatic increase
percent plaque load, Thioflavin S staining ([4]; approximately seven months, vs controls): decrease in percent plaque load
behavioural differences, water testing [4, 7]: not significant
total APP [4, 7]: overall lower amount; also recorded: noticeable change
life span, life percentage over time ([4]; vs controls, listed as Bryostatin): increase in life span
life span, life percentage over time ([4]; vs controls, listed as Bryostatin-1): greater life percentage over time

CCCCCCCC(=O)O[C@H]1/C(=C/C(=O)OC)C[C@H]2C[C@H](CO)OC(=O)C[C@H](O)C[C@@H]3CCC[C@H](C[C@@H]4CCO[C@H](/C=C/C(C)(C)[C@]1(O)O2)O4)O3 [Analog 1]
potency relative to bryostatin-1 (PKC [5]): about 100 times
affinity for PKC, in words (PKC [6]): highest affinity
Ki (PKC [6]; read-out: PKC Affin): 0.25 nM
